Results: patent US9957299B2, “Peptidomimetic macrocycles” (AILERON THERAPEUTICS, INC., priority 2010, dated 2018)
Numbered stars: 1 amine (or outer) side, 2 acyl side, 3 side chain; on linkers, the order of the positions; unused ones are H or OH. Bridge positions count the residues as written; N and C are the ends. Square brackets hold non-standard residues; d marks the D form. Peptide text beside a SMILES is read from it. * marks the point of attachment. Trp(6-Cl) = N[C@@H](Cc1c[nH]c2cc(Cl)ccc12)C(=O)O; X3 = C=CCCCC(CCCC=C)(N[*:1])C(=O)[*:2]; R8 = C=CCCCCCC[C@@](C)(N)C(=O)O; S8 = C=CCCCCCC[C@](C)(N)C(=O)O; S5 = C=CCCC[C@](C)(N)C(=O)O; Nle = CCCC[C@H](N)C(=O)O; X1 = COCCOCCOCCOC(=O)*; Ac3c = NC1(C(=O)O)CC1

target: HDM2 (Homo sapiens, UniProt Q00987); assay: FP Competition Blinding Assay | HDM2 IC50 (nM); settings: not given
Sequence (Q00987 whole entry, looked up): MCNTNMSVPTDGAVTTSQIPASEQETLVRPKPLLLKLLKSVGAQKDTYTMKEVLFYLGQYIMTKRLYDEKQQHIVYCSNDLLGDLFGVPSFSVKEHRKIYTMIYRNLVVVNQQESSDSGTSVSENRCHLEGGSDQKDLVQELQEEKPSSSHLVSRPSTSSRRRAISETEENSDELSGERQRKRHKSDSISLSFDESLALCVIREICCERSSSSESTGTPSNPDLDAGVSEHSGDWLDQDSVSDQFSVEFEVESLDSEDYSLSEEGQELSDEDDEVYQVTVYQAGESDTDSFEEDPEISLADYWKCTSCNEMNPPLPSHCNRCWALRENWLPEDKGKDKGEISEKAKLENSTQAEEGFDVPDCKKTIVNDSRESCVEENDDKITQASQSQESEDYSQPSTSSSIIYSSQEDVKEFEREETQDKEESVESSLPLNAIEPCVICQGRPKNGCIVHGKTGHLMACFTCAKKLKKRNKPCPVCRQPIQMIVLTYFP

**Q.** Which IC50 does the source give for CC(=O)N[C@@H](CC(C)C)C(=O)N[C@H](C(=O)N[C@@H](Cc1ccccc1)C(=O)N[C@]1(C)CCCCCCC=CCCC[C@@](C)(C(=O)N[C@@H](CO)C(N)=O)NC(=O)[C@H](CC(C)C)NC(=O)[C@H](CCC(N)=O)NC(=O)[C@H](C)NC(=O)[C@H](Cc2c[nH]c3ccccc23)NC(=O)[C@H](Cc2ccc(O)cc2)NC(=O)[C@H](C)NC1=O)[C@@H](C)O [SP-191, Ac- L T F $r8 A Y W A Q L $ S -NH2] (Ac-LTF[R8]AYWAQL[S5]S-NH2; staple 4-11) here?
**A.** 74.9 nM

**Q.** Which IC50 does the source give for CC(=O)N[C@@H](Cc1c[nH]c2ccccc12)C(=O)N[C@H](C(=O)N[C@@H](Cc1ccccc1)C(=O)N[C@]1(C)CCCCCCC=CCCC[C@@](C)(C(=O)N[C@@H](CO)C(N)=O)NC(=O)[C@H](CC(C)C)NC(=O)[C@H](CCC(N)=O)NC(=O)[C@H](C)NC(=O)[C@H](Cc2c[nH]c3ccccc23)NC(=O)[C@H](Cc2ccc(O)cc2)NC(=O)[C@H](Cc2c[nH]cn2)NC1=O)[C@@H](C)O [SP-256, Ac- W T F $r8 H Y W A Q L $ S -NH2] (Ac-WTF[R8]HYWAQL[S5]S-NH2; staple 4-11) here?
**A.** 185 nM

**Q.** For CC(=O)N[C@@H](CC(C)C)C(=O)N[C@H](C(=O)N[C@@H](Cc1ccccc1)C(=O)N[C@]1(C)CCCCCCC=CCCC[C@@](C)(C(=O)N[C@@H](CO)C(N)=O)NC(=O)[C@H](CC(C)C)NC(=O)[C@H](CCC(N)=O)NC(=O)[C@H](C)NC(=O)[C@H](Cc2c[nH]c3ccccc23)NC(=O)[C@H](Cc2ccc(O)cc2)NC(=O)[C@H](C(C)C)NC1=O)[C@@H](C)O [SP-266, Ac- L T F $r8 V Y W A Q L $ S -NH2] (Ac-LTF[R8]VYWAQL[S5]S-NH2; staple 4-11), which IC50 is on record?
**A.** 66 nM

**Q.** With CC(=O)N[C@@H](CC(C)C)C(=O)N[C@H](C(=O)N[C@@H](Cc1ccccc1)C(=O)N[C@]1(C)CCCCCCC=CCCC[C@@](C)(C(=O)N[C@@H](CO)C(N)=O)NC(=O)[C@H](CC(C)C)NC(=O)[C@H](CCC(N)=O)NC(=O)[C@H](CO)NC(=O)[C@H](Cc2c[nH]c3ccccc23)NC(=O)[C@H](Cc2ccc(O)cc2)NC(=O)[C@H](C)NC1=O)[C@@H](C)O [SP-360, Ac- L T F $r8 A Y W S Q L $ S -NH2] (Ac-LTF[R8]AYWSQL[S5]S-NH2; staple 4-11) as the compound, how does the IC50 read?
**A.** 90 nM

**Q.** For CC(=O)N[C@@H](CC(C)C)C(=O)N[C@H](C(=O)N[C@@H](Cc1ccccc1)C(=O)N[C@]1(C)CCCCCCC=CCCC[C@@](C)(C(=O)N[C@@H](CO)C(N)=O)NC(=O)[C@H](CC(C)C)NC(=O)[C@H](CCC(N)=O)NC(=O)[C@H](C)NC(=O)[C@H](Cc2c[nH]c3ccccc23)NC(=O)[C@H](Cc2ccc(O)cc2)NC(=O)[C@H](CCC(=O)O)NC1=O)[C@@H](C)O [SP-512, Ac- L T F $r8 E Y W A Q F $ S -NH2] (Ac-LTF[R8]EYWAQL[S5]S-NH2; staple 4-11), which IC50 is on record?
**A.** 16.2 nM

**Q.** For COCCOCCOCCOC(=O)N[C@@H](CC(C)C)C(=O)N[C@H](C(=O)N[C@@H](Cc1ccccc1)C(=O)N[C@]1(C)CCCCCCC=CCCC[C@@](C)(C(=O)N[C@@H](CO)C(N)=O)NC(=O)[C@H](CC(C)C)NC(=O)[C@H](CCC(N)=O)NC(=O)[C@H](C)NC(=O)[C@H](Cc2c[nH]c3ccccc23)NC(=O)[C@H](Cc2ccc(O)cc2)NC(=O)[C@H](C)NC1=O)[C@@H](C)O [SP-580, mdPEG3-L T F $r8 A Y W A Q L $ S -NH2] (X1-LTF[R8]AYWAQL[S5]S-NH2; staple 4-11), which IC50 is on record?
**A.** 81 nM

target: HDMx (Homo sapiens, UniProt O15151); assay: FP Competition Blinding Assay | HDMx IC50 (nM); settings: not given
Sequence (O15151 whole entry, looked up): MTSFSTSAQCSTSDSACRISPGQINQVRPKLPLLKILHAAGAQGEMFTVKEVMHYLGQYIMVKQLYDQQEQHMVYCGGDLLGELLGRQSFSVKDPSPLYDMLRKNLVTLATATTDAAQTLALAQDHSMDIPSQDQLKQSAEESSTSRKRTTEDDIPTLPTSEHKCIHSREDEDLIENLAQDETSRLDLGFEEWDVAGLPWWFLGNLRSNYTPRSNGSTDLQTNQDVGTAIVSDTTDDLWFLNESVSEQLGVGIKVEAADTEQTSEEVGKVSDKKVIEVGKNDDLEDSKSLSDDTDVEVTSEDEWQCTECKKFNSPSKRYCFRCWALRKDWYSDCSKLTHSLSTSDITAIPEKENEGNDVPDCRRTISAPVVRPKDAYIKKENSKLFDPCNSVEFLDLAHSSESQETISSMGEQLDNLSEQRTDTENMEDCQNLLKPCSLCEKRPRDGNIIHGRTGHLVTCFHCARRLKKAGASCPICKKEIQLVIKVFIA

**Q.** For CC(=O)N[C@@H](Cc1ccccc1)C(=O)N[C@]1(C)CCCCCCC=CCCC[C@@](C)(C(=O)N[C@@H](C)C(N)=O)NC(=O)[C@H](CC(C)C)NC(=O)C2(CC2)NC(=O)[C@H](CCC(=O)O)NC(=O)[C@H](Cc2c[nH]c3cc(Cl)ccc23)NC(=O)[C@H](Cc2ccc(O)cc2)NC(=O)[C@H](C)NC1=O [SP-128, Ac- F $r8 A Y 6clW E Ac3c L $ A -NH2] (Ac-F[R8]AY[Trp(6-Cl)]E[Ac3c]L[S5]A-NH2; staple 2-9), which IC50 is on record?
**A.** 967 nM

**Q.** With CC(=O)N[C@@H](CC(C)C)C(=O)N[C@H](C(=O)N[C@@H](Cc1ccccc1)C(=O)N[C@]1(C)CCCCCCC=CCCC[C@@](C)(C(=O)N[C@@H](CO)C(N)=O)NC(=O)[C@H](CC(C)C)NC(=O)[C@H](CCC(N)=O)NC(=O)[C@H](C)NC(=O)[C@H](Cc2c[nH]c3ccccc23)NC(=O)[C@H](Cc2ccc(O)cc2)NC(=O)[C@H](C)NC1=O)[C@@H](C)O [SP-191, Ac- L T F $r8 A Y W A Q L $ S -NH2] (Ac-LTF[R8]AYWAQL[S5]S-NH2; staple 4-11) as the compound, how does the IC50 read?
**A.** 97 nM

**Q.** Which IC50 does the source give for CC(=O)N[C@@H](CC(C)C)C(=O)N[C@H](C(=O)N[C@@H](Cc1ccccc1)C(=O)N[C@]1(C)CCCCCCC=CCCC[C@@](C)(C(=O)N[C@@H](C)C(N)=O)NC(=O)[C@H](CC(C)C)NC(=O)[C@H](CCC(N)=O)NC(=O)[C@H](C)NC(=O)[C@H](Cc2c[nH]c3ccccc23)NC(=O)[C@H](Cc2ccc(O)cc2)NC(=O)[C@H](C)NC1=O)[C@@H](C)O [SP-194, Ac- L T F $r8 A Y W A Q L $ A -NH2] (Ac-LTF[R8]AYWAQL[S5]A-NH2; staple 4-11) here?
**A.** 463 nM

**Q.** Which IC50 does the source give for CC(=O)N[C@@H](CC(C)C)C(=O)N[C@H](C(=O)N[C@@H](Cc1ccccc1)C(=O)N[C@]1(C)CCCCCCC=CCCC[C@@](C)(C(=O)N[C@@H](CO)C(N)=O)NC(=O)[C@H](CC(C)C)NC(=O)[C@H](CCC(N)=O)NC(=O)[C@H](C)NC(=O)[C@H](Cc2c[nH]c3ccccc23)NC(=O)[C@H](Cc2ccc(O)cc2)NC(=O)[C@H](Cc2ccccc2)NC1=O)[C@@H](C)O [SP-267, Ac- L T F $r8 F Y W A Q L $ S -NH2] (Ac-LTF[R8]FYWAQL[S5]S-NH2; staple 4-11) here?
**A.** 318 nM

**Q.** For COCCOCCOCCOC(=O)N[C@@H](CC(C)C)C(=O)N[C@H](C(=O)N[C@@H](Cc1ccccc1)C(=O)N[C@]1(C)CCCCCCC=CCCC[C@@](C)(C(=O)N[C@@H](CO)C(N)=O)NC(=O)[C@H](CC(C)C)NC(=O)[C@H](CCC(N)=O)NC(=O)[C@H](C)NC(=O)[C@H](Cc2c[nH]c3ccccc23)NC(=O)[C@H](Cc2ccc(O)cc2)NC(=O)[C@H](C)NC1=O)[C@@H](C)O [SP-580, mdPEG3-L T F $r8 A Y W A Q L $ S -NH2] (X1-LTF[R8]AYWAQL[S5]S-NH2; staple 4-11), which IC50 is on record?
**A.** 195 nM

system: not listed separately; assay: circular dichroism; settings: aqueous, '0% TFE' (buffer not stated; general: 50 mM potassium phosphate pH 7 or water); pH ns; ns °C; 25-50 uM (general text)

**Q.** For C=CCCCCCC[C@](C)(NC(=O)[C@H](CC(C)C)NC(=O)[C@H](CC(C)C)NC(=O)[C@H](CCCNC(=N)N)NC(=O)[C@H](Cc1c[nH]c2ccccc12)NC(=O)[C@H](CC(C)C)NC(=O)[C@H](CC(N)=O)NC(=O)C(CCCC=C)(CCCC=C)NC(=O)[C@H](Cc1ccccc1)NC(=O)[C@@H](NC(=O)[C@H](CCC(N)=O)NC(=O)[C@](C)(CCCC=C)NC(=O)[C@H](CO)NC(=O)[C@H](CCC(N)=O)NC(C)=O)[C@@H](C)O)C(=O)N[C@@H](CCC(N)=O)C(=O)N[C@@H](CC(N)=O)C(N)=O (Ac-QS[S5]QTF[X3]NLWRLL[S8]QN-NH2), which helicity is on record?
**A.** 99%

**Q.** For CC(=O)N[C@@H](CCC(N)=O)C(=O)N[C@H](C(=O)N[C@@H](Cc1ccccc1)C(=O)N[C@]1(C)CCCCCCC=CCCC[C@@](C)(C(=O)N[C@@H](CO)C(N)=O)NC(=O)[C@H](CC(C)C)NC(=O)[C@H](CCC(N)=O)NC(=O)[C@H](CO)NC(=O)[C@H](Cc2c[nH]c3ccccc23)NC(=O)[C@H](Cc2c[nH]c3ccccc23)NC(=O)[C@H](Cc2c[nH]cn2)NC1=O)[C@@H](C)O (Ac-QTF[R8]HWWSQL[S5]S-NH2; staple 4-11), which helicity is on record?
**A.** 21.6%

**Q.** For CC(=O)N[C@@H](CCCNC(=N)N)C(=O)N[C@@H](CO)C(=O)N[C@@H](CCC(N)=O)C(=O)N[C@@H](CCC(N)=O)C(=O)N[C@H](C(=O)N[C@@H](Cc1ccccc1)C(=O)N[C@]1(C)CCCCCCC=CCCC[C@@](C)(C(=O)N[C@@H](CCC(N)=O)C(=O)N[C@@H](CC(N)=O)C(N)=O)NC(=O)[C@H](CC(C)C)NC(=O)[C@H](CC(C)C)NC(=O)[C@H](CCCNC(=N)N)NC(=O)[C@H](Cc2c[nH]c3ccccc23)NC(=O)[C@H](CC(C)C)NC(=O)[C@H](CC(N)=O)NC1=O)[C@@H](C)O (Ac-RSQQTF[R8]NLWRLL[S5]QN-NH2; staple 7-14), which helicity is on record?
**A.** 62.3%

**Q.** Which helicity does the source give for CCCC[C@H](NC(C)=O)C(=O)N1CCC[C@H]1C(=O)N[C@@H](CCCNC(=N)N)C(=O)N[C@@H](Cc1ccccc1)C(=O)N[C@]1(C)CCCCCCC=CCCC[C@@](C)(C(N)=O)NC(=O)[C@H](CC(C)C)NC(=O)[C@H](CC(C)C)NC(=O)[C@H](CCCNC(=N)N)NC(=O)[C@H](Cc2c[nH]c3ccccc23)NC(=O)[C@H](Cc2ccc(O)cc2)NC(=O)[C@H](CC(N)=O)NC1=O (Ac-[Nle]PRF[R8]NYWRLL[S5]-NH2; staple 5-12) here?
**A.** 54.4%

**Q.** With CCCC[C@H](NC(C)=O)C(=O)N1CCC[C@H]1C(=O)N[C@@H](CCCNC(=N)N)C(=O)N[C@@H](Cc1ccccc1)C(=O)N[C@]1(C)CCCCCCC=CCCC[C@@](C)(C(=O)N[C@@H](CCC(N)=O)C(=O)N[C@@H](CC(N)=O)C(N)=O)NC(=O)[C@H](CC(C)C)NC(=O)[C@H](CC(C)C)NC(=O)[C@H](CCCNC(=N)N)NC(=O)[C@H](Cc2c[nH]c3ccccc23)NC(=O)[C@H](Cc2ccc(O)cc2)NC(=O)[C@H](CC(N)=O)NC1=O (Ac-[Nle]PRF[R8]NYWRLL[S5]QN-NH2; staple 5-12) as the compound, how does the helicity read?
**A.** 62.6%

**Q.** Which helicity does the source give for Ac-MPRFMDYWEGLN-NH2 here?
**A.** 7.5%

**Q.** For Ac-QSQQTFSNLWRLLPQN-NH2, which helicity is on record?
**A.** 5%

**Q.** Which helicity does the source give for Ac-QTFEHWWSQLLS-NH2 here?
**A.** 21.6%

**Q.** For Ac-TSFAEYWNLLSP-NH2, which helicity is on record?
**A.** 6.8%
